The results in this text go back to DBAASP.

Common to all, as to assay: ≥ marks a high value that may be exact or a test limit, other limits are often not marked, values filed in µg/mL are converted to µM
In assay [1] the test system is Psychrobacter faecalis X29.
The test system of assay [2] is Pseudomonas aeruginosa Ps4.
Assay [3] concerns Bacillus licheniformis X39.
Assay [4] deals with Staphylococcus aureus ATCC 2592.
Assay [5] relates to Enterococcus faecalis 981.
Assay [6] relates to Rhodococcus rhodochrous X15.
Assay [7] deals with Staphylococcus aureus ATCC 25923.
Assay [8] has as its system Staphylococcus carnosus KHS.
For the next assay, the system named is Escherichia coli JW0013.
Assay [9] has as its system Escherichia coli DH5alpha.
For assay [10], the system named is Klebsiella pneumoniae ATCC 10031.
Assay [11] concerns Salmonella enterica subsp. enterica serovar Typhimurium ATCC 14028.

Each structure is given as a SMILES string. ≈ marks a conversion by molar mass, not a printed value. Bounds are passed on as bounds.

One may read the MIC as the lowest concentration found to suppress growth. `CC[C@H](C)[C@@H]1NC(=O)[C@H](CCCCN)NC(=O)[C@@H](NC(=O)[C@H](CCCCN)NC(=O)[C@H](C)NC(=O)[C@H](CCCCN)NC(=O)[C@H](CC(=O)O)NC(=O)[C@H](CCSC)NC(=O)[C@H](CC(C)C)NC(=O)[C@@H](NC(=O)CNC(=O)[C@H](C)NC(=O)[C@H](CC(C)C)NC(=O)[C@H](CC(N)=O)NC(=O)[C@@H](NC(=O)[C@@H](NC(=O)[C@@H](NC(=O)[C@H](CC(N)=O)NC(=O)[C@H](CCSC)NC(=O)[C@H](C)NC(=O)[C@@H](NC(=O)[C@H](CC(N)=O)NC(=O)[C@H](CC(C)C)NC(=O)[C@H](Cc2ccccc2)NC(=O)CN)[C@@H](C)O)[C@@H](C)O)C(C)C)[C@@H](C)O)[C@@H](C)O)CSSC[C@@H](C(=O)O)NC(=O)CNC(=O)[C@H](CCCN=C(N)N)NC1=O` [GFLNTAMNTVTNLAGTLMDKAKCKIRGC] registered an MIC in assay [1] of at least 400 µM.

Take `CC[C@H](C)[C@H](NC(=O)[C@H](CCCN=C(N)N)NC(=O)[C@@H](NC(=O)[C@H](CC(N)=O)NC(=O)[C@H](CCCN=C(N)N)NC(=O)[C@H](CCC(N)=O)NC(=O)[C@H](Cc1c[nH]c2ccccc12)NC(=O)[C@@H](N)CC(C)C)[C@@H](C)CC)C(=O)N[C@@H](CCCN=C(N)N)C(=O)N[C@@H](CCCN=C(N)N)C(N)=O` [LWQRNIRIRR]: the minimal inhibitory concentration (MIC) in [2] is at least 177 µM.

Turning to `CC[C@H](C)[C@H](NC(=O)[C@H](CC(N)=O)NC(=O)[C@H](CCCN=C(N)N)NC(=O)[C@H](CCC(N)=O)NC(=O)[C@H](Cc1c[nH]c2ccccc12)NC(=O)[C@@H](N)CS)C(=O)N[C@@H](CCCN=C(N)N)C(=O)N[C@@H](CCCCN)C(=O)N[C@@H](CS)C(=O)N[C@@H](CCCN=C(N)N)C(N)=O` [CWQRNIRKCR], the MIC in assay [2] was at least 183 µM.

Turning to `CC[C@H](C)[C@H](NC(=O)[C@H](CCCCN)NC(=O)[C@H](CC(=O)O)NC(=O)[C@H](CC(C)C)NC(=O)[C@@H](NC(=O)[C@H](CC(N)=O)NC(=O)[C@H](CC(C)C)NC(=O)[C@@H](NC(=O)[C@H](Cc1ccccc1)NC(=O)[C@H](CCC(N)=O)NC(=O)[C@H](CCCCN)NC(=O)CNC(=O)[C@H](C)NC(=O)[C@H](CC(N)=O)NC(=O)[C@H](CCCCN)NC(=O)[C@H](Cc1ccccc1)NC(=O)[C@H](CC(N)=O)NC(=O)[C@H](CCC(=O)O)NC(=O)[C@H](Cc1c[nH]c2ccccc12)NC(=O)[C@H](CC(C)C)NC(=O)[C@@H](N)CO)[C@@H](C)CC)[C@@H](C)CC)C(=O)N[C@@H](CCCN=C(N)N)C(=O)N[C@H]1CSSC[C@@H](C(=O)N[C@@H](CCCN=C(N)N)C(=O)N[C@H](C(=O)O)[C@@H](C)O)NC(=O)CNC(=O)CNC(=O)[C@H](C)NC(=O)[C@H](C(C)C)NC(=O)[C@H](CCCN=C(N)N)NC1=O` [SLWENFKNAGKQFILNILDKIRCRVAGGCRT], the figures for the MIC in [3], in assay [1] and in [4] were 14 µM (≈ 49.7 µg/mL), 1.7 µM (≈ 6.04 µg/mL) and 1.7 µM (≈ 6.04 µg/mL), respectively.

As to `CC(C)[C@H](NC(=O)[C@H](CCCCN)NC(=O)[C@H](CCCN=C(N)N)NC(=O)[C@H](Cc1ccc(O)cc1)NC(=O)[C@H](CC(N)=O)NC(=O)[C@H](CCCN=C(N)N)NC(=O)[C@H](CCC(N)=O)NC(=O)[C@H](Cc1c[nH]c2ccccc12)NC(=O)[C@@H](N)Cc1ccccc1)C(=O)N[C@@H](CCCN=C(N)N)C(N)=O` [FWQRNYRKVR], the minimum inhibitory concentration (MIC) in assay [2] was at least 172 µM.

On to `CC[C@H](C)[C@H](NC(=O)[C@H](CCCN=C(N)N)NC(=O)[C@H](Cc1c[nH]c2ccccc12)NC(=O)[C@@H](N)Cc1ccccc1)C(=O)N[C@@H](Cc1c[nH]c2ccccc12)C(=O)N[C@@H](CCCN=C(N)N)C(=O)N[C@@H](Cc1c[nH]c2ccccc12)C(=O)N[C@@H](CCCN=C(N)N)C(N)=O` [FWRIWRWR], for which, in assay [2], the MIC is 23.9 µM (≈ 31.2 µg/mL).

Take `CC[C@H](C)[C@H](NC(=O)[C@@H]1CCCN1C(=O)[C@H](Cc1ccccc1)NC(=O)[C@@H](N)Cc1ccccc1)C(=O)N[C@H](C(=O)NCC(=O)N[C@@H](CCCCN)C(=O)N[C@@H](CC(C)C)C(=O)N[C@@H](CC(C)C)C(=O)N[C@@H](CO)C(=O)NCC(=O)N[C@@H](CC(C)C)C(=O)N[C@@H](Cc1ccccc1)C(N)=O)C(C)C` [FFPIVGKLLSGLF]: the MIC is 19 µM (≈ 27.3 µg/mL) in assay [3]; at least 75 µM in assay [5]; 4.5 µM (≈ 6.47 µg/mL) in assay [6]; 150 µM (≈ 216 µg/mL) in assay [7]; 19 µM (≈ 27.3 µg/mL) in assay [8].

`CC[C@H](C)[C@H](NC(=O)[C@H](CCCN=C(N)N)NC(=O)[C@H](CCCN=C(N)N)NC(=O)[C@@H]1CCCN1C(=O)[C@@H]1CCCN1C(=O)[C@H](CCCN=C(N)N)NC(=O)[C@@H]1CCCN1C(=O)[C@H](CCCN=C(N)N)NC(=O)[C@@H]1CCCN1C(=O)[C@H](CCCN=C(N)N)NC(=O)[C@H](CCCN=C(N)N)NC(=O)[C@@H]1CCCN1C(=O)[C@H](CCCN=C(N)N)NC(=O)[C@H](CCCCN)NC(=O)[C@H](CC(=O)O)NC(=O)[C@@H](N)C(C)C)C(=O)N[C@@H](Cc1ccc(O)cc1)C(=O)N[C@@H](CC(N)=O)C(=O)N[C@@H](CCCN=C(N)N)C(N)=O` [VDKRPRRPRPRPPRRIYNR] displayed an MIC against Escherichia coli JW0013 of 0.965 µM (≈ 2.4 µg/mL). In other words, the sub-micromolar range.

In the assay with Escherichia coli JW0013, `CC[C@H](C)[C@H](NC(=O)[C@H](CCCN=C(N)N)NC(=O)[C@H](CCCN=C(N)N)NC(=O)[C@@H]1CCCN1C(=O)[C@@H]1CCCN1C(=O)[C@H](CCCN=C(N)N)NC(=O)[C@@H]1CCCN1C(=O)[C@H](CCCN=C(N)N)NC(=O)[C@@H]1CCCN1C(=O)[C@H](CC(C)C)NC(=O)[C@H](Cc1ccc(O)cc1)NC(=O)[C@H](CS)NC(=O)[C@@H]1CCCN1C(=O)[C@H](CCCCN)NC(=O)[C@H](CC(=O)O)NC(=O)[C@@H](N)C(C)C)C(=O)N[C@@H](Cc1ccc(O)cc1)C(=O)N[C@@H](CC(N)=O)C(=O)N[C@@H](CCCN=C(N)N)C(N)=O` [VDKPCYLPRPRPPRRIYNR] displayed an MIC of 2 µM (≈ 4.8 µg/mL).

With `CC[C@H](C)[C@H](NC(=O)[C@H](CCCCN)NC(=O)[C@H](CCCCN)NC(=O)[C@H](CCCCN)NC(=O)[C@@H](NC(=O)[C@H](CCCCN)NC(=O)[C@H](CCCN=C(N)N)NC(=O)[C@@H](NC(=O)[C@H](CC(N)=O)NC(=O)[C@H](CCCN=C(N)N)NC(=O)[C@H](CCC(N)=O)NC(=O)[C@H](Cc1c[nH]c2ccccc12)NC(=O)[C@@H](N)Cc1ccccc1)[C@@H](C)CC)C(C)C)C(N)=O` [FWQRNIRKVKKKI], the minimum inhibitory concentration (MIC) in [2] was at least 143 µM.

In the case of `CC[C@H](C)[C@H](NC(=O)[C@@H]1CCCN1C(=O)[C@H](CC(C)C)NC(=O)[C@@H](N)Cc1ccccc1)C(=O)N[C@H](C(=O)NCC(=O)N[C@@H](CCCCN)C(=O)N[C@@H](CC(C)C)C(=O)N[C@@H](CC(C)C)C(=O)N[C@@H](CO)C(=O)NCC(=O)N[C@@H](CC(C)C)C(=O)N[C@@H](Cc1ccccc1)C(N)=O)C(C)C` [FLPIVGKLLSGLF], the MIC in assay [3] is 19 µM (≈ 26.7 µg/mL); in assay [5], at least 37.5 µM; in assay [6], 9 µM (≈ 12.6 µg/mL); in [7], 150 µM (≈ 210 µg/mL); in [8], 19 µM (≈ 26.7 µg/mL).

`CC(C)C[C@H](NC(=O)[C@H](CCCCN)NC(=O)[C@H](CCCCN)NC(=O)[C@H](CC(C)C)NC(=O)[C@H](CC(C)C)NC(=O)[C@H](CCCCN)NC(=O)[C@H](CC(C)C)NC(=O)[C@@H](N)Cc1ccccc1)C(=O)N[C@@H](C)C(=O)N[C@@H](C)C(=O)N[C@@H](CCCCN)C(=O)N[C@@H](CC(C)C)C(=O)N[C@@H](Cc1ccccc1)C(=O)O` [FLKLLKKLAAKLF]: the results for the MIC in [9], in assay [10] and in [11] were 4.08 µM (≈ 6.25 µg/mL), 16.3 µM (≈ 25 µg/mL) and 16.3 µM (≈ 25 µg/mL), respectively.

`CC[C@H](C)[C@H](NC(=O)[C@H](CCCN=C(N)N)NC(=O)[C@H](CCCN=C(N)N)NC(=O)[C@@H]1CCCN1C(=O)[C@@H]1CCCN1C(=O)[C@H](CCCN=C(N)N)NC(=O)[C@@H]1CCCN1C(=O)[C@H](CCCN=C(N)N)NC(=O)[C@@H]1CCCN1C(=O)[C@H](CC(C)C)NC(=O)[C@H](Cc1ccc(O)cc1)NC(=O)[C@@H]1CCCN1C(=O)[C@H](CC(N)=O)NC(=O)[C@H](CCCCN)NC(=O)[C@H](CC(=O)O)NC(=O)[C@@H](N)C(C)C)C(=O)N[C@@H](Cc1ccc(O)cc1)C(=O)N[C@@H](CC(N)=O)C(=O)N[C@@H](CCCN=C(N)N)C(N)=O` [VDKNPYLPRPRPPRRIYNR]: the MIC in the assay with Escherichia coli JW0013 stood at 1.99 µM (≈ 4.8 µg/mL). That is a single-digit micromolar value.

As to `CC[C@H](C)[C@H](NC(=O)[C@H](CCCN=C(N)N)NC(=O)[C@@H](N)CCCN=C(N)N)C(=O)N[C@@H](CCCN=C(N)N)C(=O)N1CCC[C@H]1C(=O)N[C@@H](CCCN=C(N)N)C(=O)N1CCC[C@H]1C(=O)N1CCC[C@H]1C(=O)N[C@@H](CCCN=C(N)N)C(=O)N[C@@H](CC(C)C)C(=O)N1CCC[C@H]1C(=O)N[C@@H](CCCN=C(N)N)C(=O)N1CCC[C@H]1C(=O)N[C@@H](CCCN=C(N)N)C(=O)N1CCC[C@H]1C(=O)N[C@@H](CCCCN)C(=O)O` [RRIRPRPPRLPRPRPK], the MIC against Escherichia coli JW0013 was found to be 0.24 µM (≈ 0.492 µg/mL).

For `CC[C@H](C)[C@H](NC(=O)[C@H](CCCN=C(N)N)NC(=O)[C@H](Cc1c[nH]c2ccccc12)NC(=O)[C@@H](N)Cc1ccccc1)C(=O)N[C@@H](CCCN=C(N)N)C(=O)N[C@@H](CCCCN)C(=O)N[C@H](C(=O)N[C@@H](CCCN=C(N)N)C(N)=O)C(C)C` [FWRIRKVR], in [2], the MIC was at least 215 µM.
